“And” between values parts separate entries of the source, which are not always exact repeats. Equal values may be shown once. Inconclusive results and toxic doses are left out. Rule as the data show it: active = T/C of 150% or more; inactive = T/C below 125%.
System: L1210 leukemia ip in BDF1 mice, survival T/C
Test: NCI In Vivo Anticancer Drug Screen. Data for tumor model L1210 Leukemia (intraperitoneal) in B6D2F1 (BDF1) mice
Conditions: endpoint: mean survival time, higher = longer survival
Method in brief: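 Antitumor effect is assessed in tumor-bearing animals. Survival in the compound arm is compared with a vehicle-dosed control arm and expressed as their quotient.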

[1] = dose: 100.0 mg/kg/injection, schedule: Q01DX009 (ip), vehicle: saline
[2] = dose: 100.0 mg/kg/injection, schedule: Q04DX003 (ip), vehicle: saline
[3] = dose: 200.0 mg/kg/injection, schedule: Q01DX009 (ip), vehicle: saline
[4] = dose: 200.0 mg/kg/injection, schedule: Q04DX003 (ip), vehicle: saline
[5] = dose: 400.0 mg/kg/injection, schedule: Q01DX009 (ip), vehicle: saline
[6] = dose: 400.0 mg/kg/injection, schedule: Q04DX003 (ip), vehicle: saline
[7] = dose: 100.0 mg/kg/injection, schedule: Q01DX009 (ip), vehicle: saline with Tween-80
[8] = dose: 200.0 mg/kg/injection, schedule: Q01DX009 (ip), vehicle: saline with Tween-80
[9] = dose: 100.0 mg/kg/injection, schedule: Q04DX003 (ip), vehicle: saline with Tween-80
[10] = dose: 200.0 mg/kg/injection, schedule: Q04DX003 (ip), vehicle: saline with Tween-80
[11] = dose: 400.0 mg/kg/injection, schedule: Q04DX003 (ip), vehicle: saline with Tween-80
[12] = dose: 100.0 mg/kg/injection, schedule: Q01DX001 (ip), vehicle: saline
[13] = dose: 200.0 mg/kg/injection, schedule: Q01DX001 (ip), vehicle: saline
[14] = dose: 400.0 mg/kg/injection, schedule: Q01DX001 (ip), vehicle: saline
[15] = dose: 100.0 mg/kg/injection, schedule: Q01DX009 (ip), vehicle: Klucel (hydroxypropylcellulose) (HPC)

Measured: T/C

COc1ccccc1NC(=O)c1cc2ccccc2cc1O
inactive: [1] 109 % of control | [2] 100 % of control | [3] 104 % of control | [4] 100 % of control | [5] 100 % of control | [6] 98 % of control

O=C(Nc1cc(S(=O)(=O)O)cc2cc(S(=O)(=O)O)c(N=Nc3ccc([As](=O)(O)O)cc3)c(O)c12)c1ccc([N+](=O)[O-])cc1
inactive: dose: 200.0 mg/kg/injection, schedule: Q04DX003 (ip), vehicle: saline sonified 92 % of control

N#CCCCOc1cccc([N+](=O)[O-])c1
inactive: [7] 93 % of control | [8] 102 % of control

C[Si](C)(O[Si](C)(C)c1ccccc1)c1ccccc1
inactive: dose: 20.0 mg/kg/injection, schedule: Q01DX009 (ip), vehicle: saline 93 % of control | dose: 40.0 mg/kg/injection, schedule: Q01DX009 (ip), vehicle: saline 90 % of control | dose: 80.0 mg/kg/injection, schedule: Q01DX009 (ip), vehicle: saline 87 % of control | [1] 95 % of control | [2] 103 % of control | [3] 107 % of control | [4] 100 % of control | [6] 97 % of control

CN1C(=O)CC(NC(=O)OCc2ccccc2)C1=O (stereo not drawn)
inactive: [9] 95 % of control | [10] 103 % of control | [11] 96 % of control

COC1OC(CO)C(O)C(NC(=O)NCCCl)C1O (stereo not drawn)
inactive: [12] 113 % of control | [13] 111 % of control | [14] 103 % of control

O=C(O)/C=C/C(=O)Nc1ccc(NC(=O)/C=C/C(=O)O)cc1
inactive: [9] 98 % of control | [10] 95 % of control | [11] 96 % of control

CCN(C(=O)Nc1ccc(Cl)cc1)c1ccccc1C
inactive: [9] 91 % of control | [10] 93 % of control

O/N=C/c1ccc(Cl)cc1
inactive: dose: 50.0 mg/kg/injection, schedule: Q01DX001 (ip), vehicle: saline 97 % of control | [12] 100 % of control | [13] 94 % of control

Cc1cc(-c2ccc(NC(=O)Nc3cccc(C4=NCCN4)c3)c(C)c2)ccc1NC(=O)Nc1cccc(C2=NCCN2)c1
inactive: dose: 31.2 mg/kg/injection, schedule: Q01DX Z (ip), vehicle: methylcellulose (MC) 97 % of control | dose: 62.5 mg/kg/injection, schedule: Q01DX Z (ip), vehicle: methylcellulose (MC) 103 % of control | dose: 125.0 mg/kg/injection, schedule: Q01DX Z (ip), vehicle: methylcellulose (MC) 103 % of control

OCCCN=Cc1cc(Cl)cc(Cl)c1O
inactive: [12] 98 % of control | [13] 95 % of control | [14] 93 % of control

N#Cc1c(F)c(F)c(Oc2c(F)c(F)c(Oc3c(F)c(F)c(C#N)c(F)c3F)c(F)c2F)c(F)c1F
inactive: dose: 100.0 mg/kg/injection, schedule: Q01DX001 (ip), vehicle: Klucel (hydroxypropylcellulose) (HPC) 97 % of control | dose: 100.0 mg/kg/injection, schedule: Q04DX003 (ip), vehicle: Klucel (hydroxypropylcellulose) (HPC) 94 % of control | dose: 200.0 mg/kg/injection, schedule: Q01DX001 (ip), vehicle: Klucel (hydroxypropylcellulose) (HPC) 97 % of control | dose: 200.0 mg/kg/injection, schedule: Q04DX003 (ip), vehicle: Klucel (hydroxypropylcellulose) (HPC) 94 % of control | dose: 400.0 mg/kg/injection, schedule: Q01DX001 (ip), vehicle: Klucel (hydroxypropylcellulose) (HPC) 89 % of control | dose: 400.0 mg/kg/injection, schedule: Q04DX003 (ip), vehicle: Klucel (hydroxypropylcellulose) (HPC) 92 % of control

C(=N/N(Cc1ccccc1)Cc1ccccc1)/c1ccccc1
inactive: [12] 94 % of control | [13] 103 % of control | [14] 101 % of control

Clc1nc(Cl)c2c(n1)NCCN2
inactive: dose: 50.0 mg/kg/injection, schedule: Q01DX009 (ip), vehicle: Klucel (hydroxypropylcellulose) (HPC) 106 % of control | [15] 103 % of control

c1ccc2c(c1)-c1ccccc1[Si]21c2ccccc2-c2ccccc21
inactive: [7] 97 % of control | [8] 92 % of control | dose: 400.0 mg/kg/injection, schedule: Q01DX009 (ip), vehicle: saline with Tween-80 91 % of control

O=c1n(CCCl)c(=O)n(CCCl)c(=O)n1CCCl
inactive: dose: 50.0 mg/kg/injection, schedule: Q04DX003 (ip), vehicle: saline with Tween-80 103 % of control | [9] 88 % of control | [10] 96 % of control and 87 % of control | [11] 98 % of control

CC(=O)OC1C=CCC2C(=O)C3=C(C(=O)c4ccccc4C3=O)C(=O)C12 (stereo not drawn)
inactive: dose: 0.25 mg/kg/injection, schedule: Q04DX003 (ip), vehicle: saline with Tween-80 93 % of control | dose: 0.5 mg/kg/injection, schedule: Q04DX003 (ip), vehicle: saline with Tween-80 93 % of control | dose: 1.0 mg/kg/injection, schedule: Q04DX003 (ip), vehicle: saline with Tween-80 89 % of control | dose: 2.0 mg/kg/injection, schedule: Q04DX003 (ip), vehicle: saline with Tween-80 97 % of control | dose: 4.0 mg/kg/injection, schedule: Q04DX003 (ip), vehicle: saline with Tween-80 107 % of control | dose: 6.0 mg/kg/injection, schedule: Q04DX003 (ip), vehicle: saline with Tween-80 103 % of control | dose: 8.0 mg/kg/injection, schedule: Q04DX003 (ip), vehicle: saline with Tween-80 98 % of control | dose: 12.0 mg/kg/injection, schedule: Q04DX003 (ip), vehicle: saline with Tween-80 97 % of control | dose: 16.0 mg/kg/injection, schedule: Q04DX003 (ip), vehicle: saline with Tween-80 98 % of control | dose: 24.0 mg/kg/injection, schedule: Q04DX003 (ip), vehicle: saline with Tween-80 97 % of control | dose: 32.0 mg/kg/injection, schedule: Q04DX003 (ip), vehicle: saline with Tween-80 104 % of control | dose: 48.0 mg/kg/injection, schedule: Q04DX003 (ip), vehicle: saline with Tween-80 97 % of control | dose: 64.0 mg/kg/injection, schedule: Q04DX003 (ip), vehicle: saline with Tween-80 100 % of control | dose: 128.0 mg/kg/injection, schedule: Q04DX003 (ip), vehicle: saline with Tween-80 100 % of control

Nc1ccc(N=Nc2ccccc2)cc1[N+](=O)[O-]
inactive: [9] 98 % of control | [10] 96 % of control | [11] 94 % of control

BrCc1nc2ccccc2[nH]1
inactive: [12] 95 % of control | [13] 101 % of control | [14] 107 % of control

CC1OC(n2cnc3c(N)nc(F)nc32)C(O)C1O (stereo not drawn)
inactive: dose: 37.5 mg/kg/injection, schedule: Q01DX001 (ip), vehicle: other 112 % of control

CC(=O)Nc1ccc(NC(=O)Nc2cccc(Cl)c2C)cc1
inactive: [15] 89 % of control | dose: 200.0 mg/kg/injection, schedule: Q01DX009 (ip), vehicle: Klucel (hydroxypropylcellulose) (HPC) 89 % of control | dose: 400.0 mg/kg/injection, schedule: Q01DX009 (ip), vehicle: Klucel (hydroxypropylcellulose) (HPC) 91 % of control

CC1OC(=O)NC1C(=O)O (stereo not drawn)
inactive: [12] 120 % of control | [1] 91 % of control | [9] 106 % of control | [13] 98 % of control | [3] 101 % of control | [10] 103 % of control | [14] 101 % of control | [5] 89 % of control | [11] 95 % of control

COc1cc(C=C(C(C)=O)C(C)=O)ccc1O
inactive: [9] 112 % of control | [10] 109 % of control

CCOC(=O)CNC(=O)C(OC(C)=O)C(OC(C)=O)C(=O)O (stereo not drawn)
inactive: dose: 100.0 mg/kg/injection, schedule: Q04DX003 (ip), vehicle: water 97 % of control | dose: 200.0 mg/kg/injection, schedule: Q04DX003 (ip), vehicle: water 92 % of control | dose: 400.0 mg/kg/injection, schedule: Q04DX003 (ip), vehicle: water 92 % of control

Source: PubChem BioAssay AID248 (DTP/NCI, 2004)
